Tests used:
[1] = Tissue distribution by stable isotope dilution LC-MS; format: in vivo, mouse; settings: mice, 80 mg/kg i.p.
Description: Stable isotope dilution LC-MS, pharmacokinetics, and tissue distribution measurements. […] Tissue samples ( 100 mg) fromb 6K-treated mice and vehicle controls were weighed and disrupted in Dounce homogenizers with PBS buffer (0.5 mL/100 mg sample), supplemented with 5 μM heavy-6bK and protease inhibitor cocktail (1 tablet/50 mL PBS, Roche diagnostics). The lysate was incubated on ice for 30 min, sonicated 5 min and centrifuged at 13,000 g for 5 min. The bulk of supernatant proteins were precipitated by denaturation at 95° C. for 5 min, removed by centrifugation.

GCGR−/− mice = assay: Glucose tolerance tests in glucagon receptor knockout mice; format: in vivo, mouse; settings: 80 mg/kg
From the text: In vivo studies, general information. Wild-type C57BL/6J and diet-induced obese (DIO) C57BL/6J age-matched male adult mice were purchased from Jackson Laboratories. The age range was 13 to 15 weeks for lean mice, and 24 to 26 weeks for DIO mice. All animals were individually housed on a 14-h light, 10-h dark schedule at the Biology Research Infrastructure (BRI), Harvard University. Cage enrichment included cotton bedding and a red plastic hut. Water and food were available ad libitum, consisting respectively of normal chow (Prolab® RHM 3000) or high-fat diet (60 kcal % fat, D12492, Research Diets Inc.). […]
Glucose tolerance tests GTT and blood glucose measurements. […] Blood glucose was measured using AccuCheck® meters (Aviva) from blood droplets obtained from a small nick at the tip of the tail, at timepoints −45, 0, 15, 30, 45, 60, 90 and 120 min with reference to the time of glucose injection. The area of the blood glucose response profile curve corresponding to each animal was calculated by the trapezoid method^17, using as reference each individual baseline blood glucose measurement prior to glucose administration (t=0). […]

[2] = tested on: lean and DIO C57BL/6J mice; assay: i.p. injected glucose tolerance test (IPGTT); format: in vivo, mouse
Description: Wild-type lean C57BL/6J and diet-induced obese (DIO) C57BL/6J age-matched male mice were purchased from Jackson Laboratories, and used at ages 14-16, and 24-26 weeks respectively (>20 weeks of high-fat diet for the DIO mice). GCGR^/ mice were bred from heterozygous mice and used between 11 and 17 weeks. […] Blood glucose was measured from tail nicks using AccuCheck (Aviva) meters.
In vivo studies, general information. Wild-type C57BL/6J and diet-induced obese (DIO) C57BL/6J age-matched male adult mice were purchased from Jackson Laboratories. The age range was 13 to 15 weeks for lean mice, and 24 to 26 weeks for DIO mice. All animals were individually housed on a 14-h light, 10-h dark schedule at the Biology Research Infrastructure (BRI), Harvard University. Cage enrichment included cotton bedding and a red plastic hut. Water and food were available ad libitum, consisting respectively of normal chow (Prolab® RHM 3000) or high-fat diet (60 kcal % fat, D12492, Research Diets Inc.). All animal care and experimental procedures were in accordance with the standing committee on the Use of Animals in Research and Teaching at Harvard University, the guidelines and rules established by the Faculty of Arts and Sciences' Institutional Animal Care and Use Committee (IACUC), and the National Institutes of Health Guidelines for the Humane Treatment of Laboratory Animals. Glucagon-receptor knock-out (GCGR^−/−) mice were housed with a 14-h light and 10-h dark schedule and treated in accordance with the guidelines and rules approved by the IACUC at Albert Einstein College of Medicine, NY. Power analysis to determine animal cohort numbers was based on preliminary results and literature precedent, usually requiring between 5 and 8 animals per group. Animals were only excluded from the cohorts in cases of chronic weakness, which occurs among GCGR −/− mice, or when we identified occasional DIO mice with an outlier diabetic phenotype (>200 mg/dL fasting blood glucose). Age- and weight-matched mice were randomized to each treatment group. Double-blinding was not feasible.
Glucose tolerance tests GTT and blood glucose measurements. Prior to a glucose challenge, the animals were fasted for 14 h (8 pm to 10 am, during the dark cycle) while individually housed in a clean cage with inedible wood-chip as a floor substrate, cotton bedding and a red plastic hut. Inhibitor, vehicle or control compounds were administered by a single intraperitoneal (i.p.) injection 30 min prior to the glucose challenge. Dextrose was formulated in sterile saline (3 g in 10 mL total), and the dose was adjusted by fasted body weight. For oGTT, 3.0 g/kg dextrose was administered by gavage at a dose of 10 mL/kg, and for ipGTT, 1.5 g/kg dextrose injected at a dose of 5 mL/kg. Blood glucose was measured using AccuCheck® meters (Aviva) from blood droplets obtained from a small nick at the tip of the tail, at timepoints −45, 0, 15, 30, 45, 60, 90 and 120 min with reference to the time of glucose injection. The area of the blood glucose response profile curve corresponding to each animal was calculated by the trapezoid method^17, using as reference each individual baseline blood glucose measurement prior to glucose administration (t=0). […] Values are reported as mean±S.E.M. Statistics were performed using a two-tail Student's t-test, and significance levels shown in the figures are *p<0.05 versus vehicle control group or **p<0.01 versus vehicle control group.

[3] = biological target: T1, endogenous IDE in mouse plasma (Mus musculus, UniProt Q9JHR7, L174F/R633G/V509I/Y332H); assay: LC-MS assay for ex vivo degradation of CGRP in mouse plasma; format: biochemical; settings: CGRP 10 μM
T1 construct: endogenous IDE in mouse plasma; from tissue; host or cells: mouse plasma
Description: All data points and error bars represent mean±SEM. Significance tests were performed using two-tail Student's t-test, and significance levels shown in the figures are p<0.05 (*) or p<0.01 (**) versus the vehicle-only control group. The in vitro selection of the DNA-templated macrocycle libraryl^16,17 used 20 μg His6-tagged mouse IDE immobilized on cobalt magnetic beads (Dynabeads, Invitrogen). IDE proteolytic activity was assayed with fluorogenic peptide Mca-[…](Dnp)-OH (R&D). IDE inhibition was confirmed using an anti-insulin antibody time-resolved FRET assay (Cysbio), and using an LCMS assay for CGRP cleavage fragments CGRP1-17 and CGRP18-37 in plasma^18. […] IDE degradation assays for insulin and calcitonin-gene related peptide (CGRP). […] Fluorescence was measured using a Tecan Safire 2 plate reader (excitation=320 nm, emission=665 and 620 nm, lag time=60 μs) according the assay manufacturer's recommendations. Degradation of CGRP by endogenous IDE in mouse plasma was analyzed by LC-MS for the formation of CGRP1-17 and CGRP18-37 as previously reported^6.

T1 sequence (Q9JHR7 whole entry L174F/Y332H/V509I/R633G): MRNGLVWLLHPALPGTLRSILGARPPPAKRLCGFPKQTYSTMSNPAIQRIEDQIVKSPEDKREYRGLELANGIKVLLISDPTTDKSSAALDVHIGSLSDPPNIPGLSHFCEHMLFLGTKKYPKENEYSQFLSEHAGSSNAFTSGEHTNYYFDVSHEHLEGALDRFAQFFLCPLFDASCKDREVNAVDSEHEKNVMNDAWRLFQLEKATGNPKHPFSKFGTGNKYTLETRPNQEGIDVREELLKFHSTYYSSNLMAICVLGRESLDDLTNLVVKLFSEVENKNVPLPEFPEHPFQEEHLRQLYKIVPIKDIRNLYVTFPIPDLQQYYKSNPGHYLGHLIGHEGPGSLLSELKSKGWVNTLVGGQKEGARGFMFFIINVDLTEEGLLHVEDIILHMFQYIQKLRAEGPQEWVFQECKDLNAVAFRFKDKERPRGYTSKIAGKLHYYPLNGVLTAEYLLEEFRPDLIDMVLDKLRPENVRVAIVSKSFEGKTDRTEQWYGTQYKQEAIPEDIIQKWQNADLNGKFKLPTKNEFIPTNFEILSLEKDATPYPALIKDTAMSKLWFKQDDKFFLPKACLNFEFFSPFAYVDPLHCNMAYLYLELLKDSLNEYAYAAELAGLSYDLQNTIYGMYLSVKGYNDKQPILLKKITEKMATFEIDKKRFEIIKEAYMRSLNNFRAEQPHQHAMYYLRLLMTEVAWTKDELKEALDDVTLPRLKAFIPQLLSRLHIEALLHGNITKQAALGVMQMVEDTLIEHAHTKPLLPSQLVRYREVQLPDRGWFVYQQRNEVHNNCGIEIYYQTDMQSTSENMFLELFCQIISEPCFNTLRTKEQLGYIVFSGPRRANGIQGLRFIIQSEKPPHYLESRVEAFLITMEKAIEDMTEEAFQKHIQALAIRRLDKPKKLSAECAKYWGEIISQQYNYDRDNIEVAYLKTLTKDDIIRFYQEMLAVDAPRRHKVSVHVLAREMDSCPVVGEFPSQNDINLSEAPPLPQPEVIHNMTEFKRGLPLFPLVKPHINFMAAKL

| inhibition of IDE proteolytic activity, calcitonin-gene related peptide LC-MS assay [3] | SMILES | biodistribution into plasma, liver, kidney, and pancreatic tissues [1] | detection in the brain ([1]; 10-fold concentrated samples) | response to i.p. injected glucose (GCGR−/− mice; 6bK vs vehicle) | oral glucose tolerance (GCGR−/− mice; vs vehicle) | IPGTT response at low dose ([2]; DIO mice, 40 mg/kg) | glucose response profile in IPGTT ([2]; DIO mice, 60 mg/kg, lower over initial 30 min, hyperglycemic rebound from 1 h) | IPGTT response at high dose ([2]; DIO mice, 90 mg/kg) | effective dose ([2]; i.p., 80 mg/kg lean (25 g), 60 mg/kg DIO (35-45 g)) | glucose tolerance after i.p. glucose injection ([2]; lean and DIO mice, glucose 1.5 g/kg i.p., vs vehicle) |
| --- | --- | --- | --- | --- | --- | --- | --- | --- | --- | --- |
|  | NCCCC[C@@H]1NC(=O)/C=C/C(=O)N[C@H](C(N)=O)CCCCNC(=O)[C@@H](Cc2ccc(C(=O)c3ccccc3)cc2)NC(=O)[C@H](CC2CCCCC2)NC1=O [Compound 6bK] | prompt biodistribution | did not detect | virtually identical | improvement | too low to achieve a consistent effect | biphasic response | respond similarly to 60 mg/kg | ~2 mg/mouse | impaired glucose tolerance |
| confirmed | NC(=O)CCC1NC(=O)C=CC(=O)NC(C(N)=O)CCCCNC(=O)C(Cc2ccc(C(=O)c3ccccc3)cc2)NC(=O)C(CC2CCCCC2)NC1=O (stereo not shown) [Compound 6b] |  |  |  |  |  |  |  |  |  |
